Values quoted from earlier work as cited in patent US11304923B2, “Use of a benzoate containing composition to treat glycine encephalopathy” (Rush University Medical Center, priority 2017, dated 2022).

Assays:
[1] = system: disease process of multiple sclerosis (MS); settings: mice
DJ-1 = settings: astrocytes and neurons
[2] = system: brain-derived neurotrophic factor (BDNF); settings: brain cells
neurotrophin-3 (NT-3) = settings: brain cells

## O=C([O-])c1ccccc1.[Na+] [sodium benzoate]
[1]
  disease process of multiple sclerosis (MS): suppresses
DJ-1
  DJ-1 protein level: up-regulates
[2]
  production of BDNF: increases
neurotrophin-3 (NT-3)
  production of NT-3: increases
